Measurements as given in US20240158446A1, “CYCLIC COMPOUND HAVING SELECTIVE INHIBITORY ACTION ON KRAS OVER HRAS AND NRAS” (CHUGAI SEIYAKU KABUSHIKI KAISHA, priority 2021, published 2024).

How the values were obtained:
[1] = molecular target: GDP-bound KRAS wild-type protein (Homo sapiens, UniProt P01116); experiment: Binding to KRAS by surface plasmon resonance (SPR), Single Cycle Kinetics; conditions: SPR Single Cycle Kinetics, GDP-bound KRAS wild-type protein, 1:1 binding model; read-out: KRAS KD
Chain of GDP-bound KRAS wild-type protein (P01116 whole entry): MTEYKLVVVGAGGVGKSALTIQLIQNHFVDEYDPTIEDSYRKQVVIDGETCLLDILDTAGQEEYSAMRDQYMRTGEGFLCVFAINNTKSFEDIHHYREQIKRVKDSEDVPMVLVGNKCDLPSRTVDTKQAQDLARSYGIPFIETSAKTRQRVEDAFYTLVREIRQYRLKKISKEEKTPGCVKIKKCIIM

[2] = molecular target: GDP-bound HRAS wild-type protein (Homo sapiens, UniProt P01112); experiment: Binding to HRAS by surface plasmon resonance (SPR), Single Cycle Kinetics; conditions: SPR, GDP-bound HRAS wild-type protein vs GDP-bound KRAS wild-type protein
Chain of GDP-bound HRAS wild-type protein (P01112 whole entry): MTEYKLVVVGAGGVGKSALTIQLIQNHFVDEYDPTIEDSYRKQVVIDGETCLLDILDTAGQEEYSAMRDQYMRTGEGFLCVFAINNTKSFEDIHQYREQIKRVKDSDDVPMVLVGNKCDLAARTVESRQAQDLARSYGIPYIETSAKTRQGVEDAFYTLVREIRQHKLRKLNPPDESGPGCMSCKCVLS

[3] = molecular target: GDP-bound NRAS wild-type protein (Homo sapiens, UniProt P01111); experiment: Binding to NRAS by surface plasmon resonance (SPR), Single Cycle Kinetics; conditions: SPR, GDP-bound NRAS wild-type protein vs GDP-bound KRAS wild-type protein
Chain of GDP-bound NRAS wild-type protein (P01111 whole entry): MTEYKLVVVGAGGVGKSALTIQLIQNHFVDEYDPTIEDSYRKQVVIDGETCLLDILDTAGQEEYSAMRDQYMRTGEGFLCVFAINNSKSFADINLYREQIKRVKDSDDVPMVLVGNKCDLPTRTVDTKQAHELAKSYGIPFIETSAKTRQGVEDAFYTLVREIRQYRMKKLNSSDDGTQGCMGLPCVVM

## CC[C@H](C)[C@@H]1NC(=O)[C@H](CC(C)C)N(C)C(=O)C[C@@H](C(=O)N2CCOCC2)N(C)C(=O)[C@H](C2CCCC2)N(C)C(=O)C2(CCCC2)NC(=O)[C@@H]2CCCN2C(=O)[C@H](CCc2cc(F)c(C(F)(F)F)c(F)c2)NC(=O)CN(C)C(=O)[C@H](Cc2ccc(C(F)(F)F)cc2)N2CCCC[C@@H](C2=O)N(C)C(=O)CNC1=O [PP0542]
[1]
  Kd: 110 pM
[2]
  HRAS/KRAS (ratio of KD value with respect to HRAS to KD value with respect to KRAS): B (a compound having 3 or more and less than 10 is denoted as B)
[3]
  NRAS/KRAS (ratio of KD value with respect to NRAS to KD value with respect to KRAS): B (a compound having 3 or more and less than 10 is denoted as B)

## CC[C@H](C)[C@@H]1NC(=O)[C@H](CC(C)C)N(C)C(=O)C[C@@H](C(=O)N2CCOCC2)N(C)C(=O)[C@H](C2CCCC2)N(C)C(=O)C2(CCCC2)NC(=O)[C@@H]2CCCN2C(=O)[C@H](CCc2cc(F)c(C(F)(F)F)c(F)c2)NC(=O)CN(C)C(=O)[C@H](Cc2ccc(C(F)(F)F)cc2)N2CCCC[C@@H](C2=O)N(C)C(=O)[C@H](C)NC1=O [PP0543]
[1]
  Kd: 1000 pM
[2]
  HRAS/KRAS (ratio of KD value with respect to HRAS to KD value with respect to KRAS): B (a compound having 3 or more and less than 10 is denoted as B)
[3]
  NRAS/KRAS (ratio of KD value with respect to NRAS to KD value with respect to KRAS): B (a compound having 3 or more and less than 10 is denoted as B)

## CC[C@H](C)[C@@H]1NC(=O)[C@H](CC(C)C)N(C)C(=O)C[C@@H](C(=O)N2CCOCC2)N(C)C(=O)[C@H](C2CCCC2)N(C)C(=O)C2(CCCC2)NC(=O)[C@@H]2CCCN2C(=O)[C@H](CCc2cc(F)c(C(F)(F)F)c(F)c2)NC(=O)CN(C)C(=O)[C@H](Cc2ccc(C(F)(F)F)cc2)N2CCCC[C@@H](C2=O)N(C)C(=O)[C@H](C)N(C)C1=O [PP0544]
[1]
  Kd: 18000 pM
[2]
  HRAS/KRAS (ratio of KD value with respect to HRAS to KD value with respect to KRAS): B (a compound having 3 or more and less than 10 is denoted as B)
[3]
  NRAS/KRAS (ratio of KD value with respect to NRAS to KD value with respect to KRAS): B (a compound having 3 or more and less than 10 is denoted as B)

## CC[C@H](C)[C@@H]1NC(=O)[C@H](CC(C)C)N(C)C(=O)C[C@@H](C(=O)N2CCOCC2)N(C)C(=O)[C@H](C2CCCC2)N(C)C(=O)C2(CCCC2)NC(=O)[C@@H]2CCCN2C(=O)[C@H](CCc2cc(F)c(C(F)(F)F)c(F)c2)NC(=O)CN(C)C(=O)[C@H](Cc2ccc(C(F)(F)F)cc2)N2CCCC[C@@H](C2=O)N(C)C(=O)CN(CC)C1=O [PP0545]
[1]
  Kd: 240 pM
[2]
  HRAS/KRAS (ratio of KD value with respect to HRAS to KD value with respect to KRAS): B (a compound having 3 or more and less than 10 is denoted as B)
[3]
  NRAS/KRAS (ratio of KD value with respect to NRAS to KD value with respect to KRAS): B (a compound having 3 or more and less than 10 is denoted as B)

## CC[C@H](C)[C@@H]1NC(=O)[C@H](CC(C)C)N(C)C(=O)C[C@@H](C(=O)N2CCOCC2)N(C)C(=O)[C@H](C2CCCC2)N(C)C(=O)C2(CCCC2)NC(=O)[C@@H]2CCCN2C(=O)[C@H](CCc2cc(F)c(C(F)(F)F)c(F)c2)NC(=O)CN(C)C(=O)[C@H](Cc2ccc(C(F)(F)F)cc2)N2CCCC[C@@H](C2=O)N(C)C(=O)[C@@H]2CCCN2C1=O [PP0547]
[1]
  Kd: 360 pM
[2]
  HRAS/KRAS (ratio of KD value with respect to HRAS to KD value with respect to KRAS): B (a compound having 3 or more and less than 10 is denoted as B)
[3]
  NRAS/KRAS (ratio of KD value with respect to NRAS to KD value with respect to KRAS): B (a compound having 3 or more and less than 10 is denoted as B)

## CC[C@H](C)[C@@H]1NC(=O)[C@H](CC(C)C)N(C)C(=O)C[C@@H](C(=O)N2CCOCC2)N(C)C(=O)[C@H](C2CCCC2)N(C)C(=O)C2(CCCC2)NC(=O)[C@@H]2CCCN2C(=O)[C@H](CCc2cc(F)c(C(F)(F)F)c(F)c2)NC(=O)CN(C)C(=O)[C@H](Cc2ccc(C(F)(F)F)cc2)N2CCCC[C@@H](C2=O)N(C)C(=O)[C@@H]2CCCCN2C1=O [PP0548]
[1]
  Kd: 15000 pM
[2]
  HRAS/KRAS (ratio of KD value with respect to HRAS to KD value with respect to KRAS): B (a compound having 3 or more and less than 10 is denoted as B)
[3]
  NRAS/KRAS (ratio of KD value with respect to NRAS to KD value with respect to KRAS): C (A compound having a KD ratio of 0.1 or more and less than 3 is denoted as C)

## CC[C@H](C)[C@@H]1NC(=O)[C@H](C)N(C)C(=O)C[C@@H](C(=O)N2CCOCC2)N(C)C(=O)[C@H](C2CCCC2)N(C)C(=O)C2(CCCC2)NC(=O)[C@@H]2CCCN2C(=O)[C@H](CCc2cc(F)c(C(F)(F)F)c(F)c2)NC(=O)CN(C)C(=O)[C@H](Cc2ccc(C(F)(F)F)cc2)N2CCCC[C@@H](C2=O)N(C)C(=O)CN(C)C1=O [PP0549]
[1]
  Kd: 62 pM
[2]
  HRAS/KRAS (ratio of KD value with respect to HRAS to KD value with respect to KRAS): B (a compound having 3 or more and less than 10 is denoted as B)
[3]
  NRAS/KRAS (ratio of KD value with respect to NRAS to KD value with respect to KRAS): C (A compound having a KD ratio of 0.1 or more and less than 3 is denoted as C)

## CC[C@H](C)[C@@H]1NC(=O)[C@H](CC(C)C)N(C)C(=O)C[C@@H](C(=O)N2CCOCC2)N(C)C(=O)[C@H](C2CCCC2)N(C)C(=O)C2(CCCC2)NC(=O)[C@@H]2CCCN2C(=O)[C@H](CCc2cc(F)c(C(F)(F)F)c(F)c2)NC(=O)CN(C)C(=O)[C@H](Cc2ccc(C(F)(F)F)cc2)N2CCCC[C@@H](C2=O)N(C)C(=O)CN(C)C1=O [PP0552]
[1]
  Kd: 52 pM
[2]
  HRAS/KRAS (ratio of KD value with respect to HRAS to KD value with respect to KRAS): B (a compound having 3 or more and less than 10 is denoted as B)
[3]
  NRAS/KRAS (ratio of KD value with respect to NRAS to KD value with respect to KRAS): B (a compound having 3 or more and less than 10 is denoted as B)

## CCO[C@@H]1C[C@H]2C(=O)NC3(CCCC3)C(=O)N(C)[C@@H](C3CCCC3)C(=O)N(C)[C@H](C(=O)N3CCOCC3)CC(=O)N(C)[C@@H](CC(C)C)C(=O)N[C@@H]([C@@H](C)CC)C(=O)N(C)CC(=O)N(C)[C@H]3CCCCN(C3=O)[C@@H](Cc3ccc(C(F)(F)F)cc3)C(=O)N(C)CC(=O)N[C@@H](CCc3cc(F)c(C(F)(F)F)c(F)c3)C(=O)N2C1 [PP0554]
[1]
  Kd: 36 pM
[2]
  HRAS/KRAS (ratio of KD value with respect to HRAS to KD value with respect to KRAS): B (a compound having 3 or more and less than 10 is denoted as B)
[3]
  NRAS/KRAS (ratio of KD value with respect to NRAS to KD value with respect to KRAS): B (a compound having 3 or more and less than 10 is denoted as B)

## CC[C@H](C)[C@@H]1NC(=O)[C@H](CC(C)C)N(C)C(=O)C[C@@H](C(=O)N2CCOCC2)N(C)C(=O)[C@H](C2CCCC2)N(C)C(=O)C2(CCCC2)NC(=O)[C@@H]2CC(=O)CN2C(=O)[C@H](CCc2cc(F)c(C(F)(F)F)c(F)c2)NC(=O)CN(C)C(=O)[C@H](Cc2ccc(C(F)(F)F)cc2)N2CCCC[C@@H](C2=O)N(C)C(=O)CN(C)C1=O [PP0555]
[1]
  Kd: 66 pM
[2]
  HRAS/KRAS (ratio of KD value with respect to HRAS to KD value with respect to KRAS): B (a compound having 3 or more and less than 10 is denoted as B)
[3]
  NRAS/KRAS (ratio of KD value with respect to NRAS to KD value with respect to KRAS): B (a compound having 3 or more and less than 10 is denoted as B)

## CC[C@H](C)[C@@H]1NC(=O)[C@H](CC(C)C)N(C)C(=O)C[C@@H](C(=O)N2CCOCC2)N(C)C(=O)[C@H](C2CCCC2)N(C)C(=O)C2(CCCC2)NC(=O)[C@@H]2C[C@H](O)CN2C(=O)[C@H](CCc2cc(F)c(C(F)(F)F)c(F)c2)NC(=O)CN(C)C(=O)[C@H](Cc2ccc(C(F)(F)F)cc2)N2CCCC[C@@H](C2=O)N(C)C(=O)CN(C)C1=O [PP0556]
[1]
  Kd: 24 pM
[2]
  HRAS/KRAS (ratio of KD value with respect to HRAS to KD value with respect to KRAS): B (a compound having 3 or more and less than 10 is denoted as B)
[3]
  NRAS/KRAS (ratio of KD value with respect to NRAS to KD value with respect to KRAS): C (A compound having a KD ratio of 0.1 or more and less than 3 is denoted as C)

## CC[C@H](C)[C@@H]1NC(=O)[C@H](CC(C)C)N(C)C(=O)C[C@@H](C(=O)N2CCOCC2)N(C)C(=O)[C@H](C2CCCC2)N(C)C(=O)C2(CCCC2)NC(=O)[C@@H]2C[C@H](OC)CN2C(=O)[C@H](CCc2cc(F)c(C(F)(F)F)c(F)c2)NC(=O)CN(C)C(=O)[C@H](Cc2ccc(C(F)(F)F)cc2)N2CCCC[C@@H](C2=O)N(C)C(=O)CN(C)C1=O [PP0557]
[1]
  Kd: 110 pM
[2]
  HRAS/KRAS (ratio of KD value with respect to HRAS to KD value with respect to KRAS): B (a compound having 3 or more and less than 10 is denoted as B)
[3]
  NRAS/KRAS (ratio of KD value with respect to NRAS to KD value with respect to KRAS): B (a compound having 3 or more and less than 10 is denoted as B)

## CC[C@H](C)[C@@H]1NC(=O)[C@H](CC(C)C)N(C)C(=O)C[C@@H](C(=O)N2CCOCC2)N(C)C(=O)[C@H](C2CCCC2)N(C)C(=O)C2(CC2)NC(=O)[C@@H]2CCCN2C(=O)[C@H](CCc2cc(F)c(C(F)(F)F)c(F)c2)NC(=O)CN(C)C(=O)[C@H](Cc2ccc(C(F)(F)F)cc2)N2CCCC[C@@H](C2=O)N(C)C(=O)CN(C)C1=O [PP0559]
[1]
  Kd: 160 pM
[2]
  HRAS/KRAS (ratio of KD value with respect to HRAS to KD value with respect to KRAS): B (a compound having 3 or more and less than 10 is denoted as B)
[3]
  NRAS/KRAS (ratio of KD value with respect to NRAS to KD value with respect to KRAS): B (a compound having 3 or more and less than 10 is denoted as B)

## CC[C@H](C)[C@@H]1NC(=O)[C@H](CC(C)C)N(C)C(=O)C[C@@H](C(=O)N2CCOCC2)N(C)C(=O)[C@H](C2CCCC2)N(C)C(=O)C2(CCC2)NC(=O)[C@@H]2CCCN2C(=O)[C@H](CCc2cc(F)c(C(F)(F)F)c(F)c2)NC(=O)CN(C)C(=O)[C@H](Cc2ccc(C(F)(F)F)cc2)N2CCCC[C@@H](C2=O)N(C)C(=O)CN(C)C1=O [PP0560]
[1]
  Kd: 50 pM
[2]
  HRAS/KRAS (ratio of KD value with respect to HRAS to KD value with respect to KRAS): B (a compound having 3 or more and less than 10 is denoted as B)
[3]
  NRAS/KRAS (ratio of KD value with respect to NRAS to KD value with respect to KRAS): B (a compound having 3 or more and less than 10 is denoted as B)

## CC[C@H](C)[C@@H]1NC(=O)[C@H](CC(C)C)N(C)C(=O)C[C@@H](C(=O)N2CCOCC2)N(C)C(=O)[C@H](C2CCCC2)N(C)C(=O)C2(CCCCC2)NC(=O)[C@@H]2CCCN2C(=O)[C@H](CCc2cc(F)c(C(F)(F)F)c(F)c2)NC(=O)CN(C)C(=O)[C@H](Cc2ccc(C(F)(F)F)cc2)N2CCCC[C@@H](C2=O)N(C)C(=O)CN(C)C1=O [PP0561]
[1]
  Kd: 310 pM
[2]
  HRAS/KRAS (ratio of KD value with respect to HRAS to KD value with respect to KRAS): B (a compound having 3 or more and less than 10 is denoted as B)
[3]
  NRAS/KRAS (ratio of KD value with respect to NRAS to KD value with respect to KRAS): B (a compound having 3 or more and less than 10 is denoted as B)
